Test results taken from PMC7911295, “Metabolism of Zearalenone in the Rumen of Dairy Cows with and without Application of a Zearalenone-Degrading Enzyme” (Toxins, 2021).
Where two headings read alike, the source gives them in different places.

Legend:
[1] = Feeding trial in rumen-fistulated dairy cows: ZEN and ZEN metabolites in feces; format: in vivo, Holstein Friesian cows; settings: feces
Source text: (§1) Ruminal metabolism of ZEN with and without supplementation of ZenA was investigated in four rumen-fistulated Holstein Friesian cows (sex: female; age at start: 5.9 ± 1.0 years; body weight at start: 863 ± 65 kg; physiological stage: non-lactating; general health: good, non-gestating; identification procedure: ear tag 4-digit code). The cows were part of the dairy herd of VetFarm (Teaching and Research Farm) of the University of Veterinary Medicine Vienna in Kremesberg, Austria. All procedures related to these experiments were performed according to Austrian law and following the European Guidelines for the Care and Use of Animals for Research Purpose. The animal experiment was approved by ethics and animal welfare commission of the University of Veterinary Medicine, Vienna and the Austrian Federal Ministry of Education, Science and Research (68.205/0156-WF/V/3b/2017, 30.08.2017).
(§2) In our trial setup, each animal was considered an experimental unit (n = 4). Each animal received the same treatment and served as its own control. First, each animal received ZEN-contaminated concentrate feed. Following a 48-h washout period, each animal received ZEN-contaminated concentrate feed supplemented with ZenA. In brief, for acclimatization, on the day prior to the start of the feeding trial, each animal was manually fed 4 × 500 g of control concentrate (Table 4 and Table 5). Thereafter, animals were manually fed (i) 1 × 500 g concentrate contaminated with ZEN and 3 × 500 g control concentrate on experimental day 1 (ZEN treatment), (ii) 4 × 500 g control concentrate on day 2 (ZEN washout), (iii) 1 × 500 g ZEN-contaminated concentrate supplemented with ZenA and 3 × 500 g control concentrate on day 3 (ZEN+ZenA treatment), and (iv) 4 × 500 g control concentrate on day 4 (ZEN+ZenA washout; Table 6). Animals were treated and assessed in the same random order at each experimental time point.
On days 1 and 3 of the experiment, feces samples were taken from the rectum immediately before concentrate feeding (0 h), as well as 10 h after concentrate feeding (Table 6) and stored at −20 °C. Aliquots (500 mg) of thoroughly homogenized feces samples were extracted for HPLC-MS/MS analysis according to the method described by Binder and coworkers.
HPLC-MS/MS analysis of ZEN, α-ZEL, β-ZEL, HZEN and DHZEN in rumen fluid and feces was performed as described for the in vitro rumen fermentation experiment (see section “In Vitro Rumen Fermentation Experiment”, subsection “Analysis of ZEN and its Metabolites”), with the following modifications. Chromatographic separation was performed with a flow rate of 0.6 mL/min, a duration of 4 min and an injection volume was 1 µL. The gradient started at 30% B which was held for 0.3 min. Subsequently, the proportion of B was increased to 80% from 0.3 to 2 min, and increased to 100% from 2 to 2.1 min. […] LODs for ZEN, α-ZEL, β-ZEL, HZEN and DHZEN in rumen fluid were 2.83 nmol/L (0.9 µg/L), 2.81 nmol/L (0.9 µg/L), 2.81 nmol/L (0.9 µg/L), 2.68 nmol/L (0.9 µg/L) and 10.27 nmol/L (3 µg/L), respectively. LOQs for ZEN, α-ZEL, β-ZEL, HZEN and DHZEN in rumen fluid were 9.43 nmol/L (3 µg/L), 9.37 nmol/L (3 µg/L), 9.37 nmol/L (3 µg/L), 8.93 nmol/L (3 µg/L) and 30.81 nmol/L (9 µg/L), respectively. LODs for ZEN, α-ZEL, β-ZEL, HZEN and DHZEN in feces were 0.03 nmol/g (8.4 ng/g), 0.03 nmol/g (8.4 ng/g), 0.03 nmol/g (8.4 ng/g), 0.03 nmol/g (8.4 ng/g) and 0.10 nmol/g (28 ng/g), respectively. LOQs for ZEN, α-ZEL, β-ZEL, HZEN and DHZEN in feces were 0.09 nmol/g (28 ng/g), 0.09 nmol/g (28 ng/g), 0.09 nmol/g (28 ng/g), 0.08 nmol/g (28 ng/g) and 0.29 nmol/g (84 ng/g), respectively.

[2] = Feeding trial in rumen-fistulated dairy cows: ZEN and ZEN metabolites in rumen fluid from reticulum, dorsal mat layer and ventral sac; format: in vivo, Holstein Friesian cows; settings: for Traces still detected at (time after administration of ZEN-contaminated concentrate): time point 0 h of the ZEN+ZenA treatment; for Tmax: female, Holstein Friesian, bovine, in vivo, po, 5 mg, read-out: Time of peak concentration post-administration (converted); for Percentage of concentration relative to the sum of ZEN and ZEN metabolite concentrations: reticulorumen; for Time to elimination: ventral sac and reticulum
Source text: as §1, §2
For production of ZEN-contaminated concentrate feed, lyophilizate of ZEN with maltodextrin as a carrier was prepared. To this end, in three parallel preparations, 50 mg ZEN (Fermentek, Jerusalem, Israel) was dissolved in 1 L RO water (pH 12; adjusted with NaOH) using a magnetic stirrer set to 400 rpm and 37 °C for 20 min. Subsequently, 100 g maltodextrin DE19 (Agrana, Vienna, Austria) was added and dissolved by stirring (400 rpm) at room temperature for 10 min. The solution was lyophilized. Lyophilizate was mixed into concentrate feed at an inclusion rate of 2%. The final concentration of ZEN in feed was aimed to be 10 mg/kg and was verified using HPLC-MS/MS analysis as described below. For production of ZEN-contaminated, ZenA-supplemented concentrate, a zearalenone hydrolase ZenA preparation (ZENzyme®; EC 3.1.1.-; BIOMIN Holding GmbH, Getzersdorf, Austria) was mixed into ZEN-contaminated concentrate to achieve an activity of 128 U/kg feed. Same as in the in vitro trial, 1 U of ZenA was defined as the enzyme activity that hydrolyzes 1 μmol ZEN per minute from 15.71 µM ZEN in Teorell Stenhagen buffer adjusted to pH 7.5 containing 0.1 mg/mL bovine serum albumin at 37 °C.
On days 1 and 3 of the trial (ZEN and ZEN+ZenA treatment, respectively), ruminal digesta samples were taken from reticulum, ventral sac and dorsal mat layer (Figure 3) immediately before concentrate feeding (0 h), as well as 15 min, 1 h, 2 h, 4 h, 7 h and 10 h after concentrate feeding (Table 6). On days 2 and 4 of the trial (washout days), ruminal digesta samples were taken immediately before first concentrate feeding (0 h), as well as 10 h after first concentrate feeding (Table 6). Ruminal digesta samples (10 mL) were taken via a rumen fistula from reticulum and ventral sac (10 cm above the bottom of the rumen) using a pump as described previously. Samples were taken from the dorsal mat layer 20 cm below the gas phase and rumen fluid was obtained by manually squeezing the samples as described previously. Samples were mixed 1:2 with acetonitrile by vortexing. […]

estrogen receptors = test system: estrogen receptors; design: method as in doi:10.2903/j.efsa.2016.4425; settings: cited from earlier work
[3] = ZEN+ZenA treatment, 0 h (48 h after ZEN treatment)
[4] = dorsal mat layer, ZEN treatment
[5] = ZEN treatment, 15 min after feeding, from median of 3 locations
[6] = reticulum and ventral sac, ZEN treatment

| Compound | Percentage of concentration relative to the sum of ZEN and ZEN metabolite concentrations ([1]; ZEN treatment, 10 h) [%] | Percentage of concentration relative to the sum of ZEN and ZEN metabolite concentrations [1, 3] [%] | Percentage of concentration relative to the sum of ZEN and ZEN metabolite concentrations ([1]; ZEN+ZenA treatment, 10 h) | Low concentrations still detected at (time after concentrate feeding) [2, 4] [h] | Traces still detected at (time after administration of ZEN-contaminated concentrate) ([2]; dorsal mat layer) [h] | Percentage of concentration relative to the sum of ZEN and ZEN metabolite concentrations [2, 5] | Percentage of concentration relative to the sum of ZEN and ZEN metabolite concentrations ([2]; ZEN treatment, 1 h) [%] | Percentage of concentration relative to the sum of ZEN and ZEN metabolite concentrations ([2]; ZEN treatment, 4 h) | Percentage of concentration relative to the sum of ZEN and ZEN metabolite concentrations ([2]; ZEN treatment, 7 h) | Percentage of concentration relative to the sum of ZEN and ZEN metabolite concentrations ([2]; ZEN treatment, 10 h) [%] | Percentage of concentration relative to the sum of ZEN and ZEN metabolite concentrations ([2]; ZEN treatment, 24 h) [%] | Percentage of concentration relative to the sum of ZEN and ZEN metabolite concentrations ([2]; ZEN+ZenA treatment, 15 min) | Percentage of concentration relative to the sum of ZEN and ZEN metabolite concentrations ([2]; ZEN+ZenA treatment, 1 h) | Percentage of concentration relative to the sum of ZEN and ZEN metabolite concentrations ([2]; ZEN+ZenA treatment, 4 h) | Percentage of concentration relative to the sum of ZEN and ZEN metabolite concentrations ([2]; ZEN+ZenA treatment, 7 h) | Percentage of concentration relative to the sum of ZEN and ZEN metabolite concentrations ([2]; ZEN+ZenA treatment, 10 h) | Detected up until (time after concentrate feeding) [2, 6] [h] | Time to elimination ([2]; ZEN treatment) [h] | Estrogenic potency relative to ZEN (estrogen receptors) [times] | further results |
| --- | --- | --- | --- | --- | --- | --- | --- | --- | --- | --- | --- | --- | --- | --- | --- | --- | --- | --- | --- | --- |
| C[C@H]1CCCC(=O)CCC/C=C/c2cc(O)cc(O)c2C(=O)O1 [ZEN, zearalenone] | 11.0 | 15.6 | 0.0 (traces) % | 34 | 48 | 100.0% | 84.8 | 84.1% | 78.7% | 74.4 | 50.2 | 5.9% | 0.0 (traces) % | 0.0 (traces) % | 0.0 (traces) % | 0.0 (traces) % | 24 | ≤ 34 |  | Tmax [2, 4]: 1 h; Tmax ([2]; reticulum, ZEN treatment (5 mg ZEN oral)): 0.25 h; Tmax ([2]; ventral sac, ZEN treatment): 1 h |
| C[C@H]1CCC[C@H](O)CCC/C=C/c2cc(O)cc(O)c2C(=O)O1 [α-ZEL, α-zearalenol] | 10.9 | 15.5 | 9.0% | 34 | 48 | 0.0 (traces) % | 7.6 | 15.9% | 21.3% | 25.6 | 49.8 | 0.0 (traces) % | 0.0% | 0.0% | 0.0% | 0.0 (traces) % | 24 | ≤ 34 | 60 | First detected (time after concentrate feeding) [2, 4]: 1 h; First detected (time after concentrate feeding) [2, 6]: 0.25 h; Detection in rumen fluid ([2]; ventral sac, ZEN+ZenA treatment): not detected |
| C[C@H]1CCC[C@@H](O)CCC/C=C/c2cc(O)cc(O)c2C(=O)O1 [β-ZEL, β-zearalenol] | 78.1 | 69.0 | 59.1% |  |  | 0.0 (traces) % | 7.6 | 0.0 (traces) % | 0.0 (traces) % | 0.0 | 0.0 | 0.0% | 0.0% | 0.0% | 0.0% | 0.0% |  | ≤ 34 | 0.2 | Detection in rumen fluid ([2]; any reticulorumen location, ZEN+ZenA treatment): not detected; Period of detection at low concentrations [2, 4]: 1 to 7 h; Time of detection at low concentrations ([2]; ventral sac, ZEN treatment): 1 h |
